Test results from ChEMBL document CHEMBL1144614, “Darpones and water-soluble aminobutoxylated darpone derivatives are distinguished by matrix COMPARE analysis” (Bioorg Med Chem Lett, 2007).

Legend:
HCT-15 = assay: Growth inhibition of HCT15 cells; type: functional; details: Homo sapiens
[1] = Solubility in phosphate buffer at pH 4.5; type: physicochemical

SMILES | GI50 (HCT-15) | solubility [1]
COc1ccc2c(c1)NC(=O)Cc1c(-c3ccccc3)cc(-c3cccc(Cl)c3)nc1-2 | > 100000 nM | –
CN1CCN(CCCCOc2ccc3c(c2)NC(=O)Cc2c(-c4ccccc4)cc(-c4cccc(Cl)c4)nc2-3)CC1.Cl.Cl | 810 nM | > 500 µg/mL
O=C1Cc2c(-c3ccccc3)cc(-c3cccc(Cl)c3)nc2-c2ccccc2N1 | 2700 nM | –
CN1CCN(CCCCOc2ccc(-c3cc(-c4ccccc4)c4c(n3)-c3ccccc3NC(=O)C4)cc2Cl)CC1.Cl.Cl | 870 nM | < 5 µg/mL
Cl.O=C1Cc2c(-c3ccccc3)cc(-c3ccc(OCCCCN4CCOCC4)c(Cl)c3)nc2-c2ccccc2N1 | 2300 nM | 5 µg/mL
Cl.NCCCCOc1ccc(-c2cc(-c3cccc(Cl)c3)nc3c2CC(=O)Nc2ccccc2-3)cc1 | 6600 nM | < 5 µg/mL
Cl.O=C1Cc2c(-c3ccccc3)cc(-c3cccc(Cl)c3)nc2-c2ccc(OCCCCN3CCOCC3)cc2N1 | 1600 nM | > 500 µg/mL
COc1ccc(-c2cc(-c3ccccc3)c3c(n2)-c2ccccc2NC(=O)C3)cc1Cl | 3000 nM | –
CN1CCN(CCCCOc2ccc(-c3cc(-c4cccc(Cl)c4)nc4c3CC(=O)Nc3ccccc3-4)cc2)CC1.Cl.Cl | 910 nM | > 500 µg/mL
Cl.O=C1Cc2c(-c3ccc(OCCCCN4CCOCC4)cc3)cc(-c3cccc(Cl)c3)nc2-c2ccccc2N1 | 1200 nM | > 500 µg/mL
COc1ccc(-c2cc(-c3cccc(Cl)c3)nc3c2CC(=O)Nc2ccccc2-3)cc1 | 1900 nM | –
Cl.NCCCCOc1ccc2c(c1)NC(=O)Cc1c(-c3ccccc3)cc(-c3cccc(Cl)c3)nc1-2 | 1800 nM | < 5 µg/mL
Cl.NCCCCOc1ccc(-c2cc(-c3ccccc3)c3c(n2)-c2ccccc2NC(=O)C3)cc1Cl | 13800 nM | < 5 µg/mL
